Results on 21 compounds are retold here after patent publication US20260191998A1, “INDOLE PHTHALOCYANINE COMPOUND, PREPARATION METHOD THEREFOR, AND USE THEREOF IN TUMOR DIAGNOSIS IMAGING” (JIANGSU YAHONG MEDITECH CO., LTD., priority 2022, published 2026).

The data set is described as follows: UV-VIS absorption spectra (optical property test). The data set is classed as physicochemical. As to conditions: 10 μM, DMSO solution; for Absorbance × 10^4: at maximum absorption peak. As for the experimental part:
The UV-VIS absorption spectra of the compounds (10 μM, DMSO solution) were detected using Shimadzu UV2600 spectrophotometer, and the maximum absorption peak and absorbance of each compound were obtained.

Where a name gives a salt, the structure may show the parent alone.

Regarding `CCN1/C(=C/C=C2\C[N+](C)(C)CC(/C=C/C3=[N+](CC)c4ccccc4C3(C)C)=C2Cl)C(C)(C)c2ccccc21` [Example 18, 2-((E)-2-((E)-4-chloro-5-(2-((E)-1-ethyl-3,3-dimethylindolin-2-ylidene)ethenyl)-1,1-dimethyl-1,2,5,6-tetrahydropyridin-1-ium-3-yl)ethenyl)-1-ethyl-3,3-dimethyl-3H-indol-1-ium Ditrifluoroacetate], the Absorption peak is listed as 764.5 nm and the “Absorbance × 10^4” value is 2.12.

In the case of `CC[N+]1=C(/C=C/C2=C(Oc3ccc(S(=O)(=O)O)cc3)C(=C/C=C3/N(CCCCCC(=O)Oc4ccccc4)c4ccccc4C3(C)C)/CCC2)C(C)(C)c2ccccc21` [Example 20, 2-((E)-2-((E)-3-(2-((E)-3,3-dimethyl-1-(6-oxo-6-phenoxyhexyl)indol-2-methylene)ethenyl)-2-(4-sulfophenoxy)cyclohex-1-en-1-yl)ethenyl)-1-ethyl-3,3-dimethyl-3H-indol-1-ium Formate], the Absorption peak is listed as 782 nm and the “Absorbance × 10^4” value is 2.60.

Consider `CC[N+]1=C(/C=C/C2=C(Cl)C(=C/C=C3/N(CCOCCC(=O)Oc4ccccc4)c4ccccc4C3(C)C)/CC2)C(C)(C)c2ccccc21` [Example 21, 2-((E)-2-((E)-2-chloro-3-(2-((E)-3,3-dimethyl-1-(2-(3-oxo-3-phenoxypropoxy)ethyl)indol-2-methylene)ethylidene)cyclopent-1-en-1-yl)ethenyl)-1-ethyl-3,3-dimethyl-3H-indol-1-ium Trifluoroacetate], for which the Absorption peak is given as 821 nm and the “Absorbance × 10^4” value amounted to 2.466.

Turning to `CC[N+]1=C(/C=C/C2=C(Cl)C(=C/C=C3/N(CCCCCC(=O)Oc4ccccc4)c4ccccc4C3(C)C)/CC2)C(C)(C)c2cc(S(=O)(=O)O)ccc21` [Example 22, 2-((E)-2-((E)-2-chloro-3-(2-((E)-3,3-dimethyl-1-(6-oxo-6-phenoxyhexyl)indolin-2-ylidene)ethenyl)cyclopent-1-en-1-yl)ethenyl)-1-ethyl-3,3-dimethyl-5-sulfonyl-3H-indol-1-ium Chloride], the Absorption peak turned out to be 827 nm and the “Absorbance × 10^4” value came to 1.97.

As to `CC1(C)C(/C=C/C2=C(Cl)C(=C/C=C3/N(CCCCCC(=O)O)c4ccccc4C3(C)C)/C[N+](C)(C)C2)=[N+](CCCCCC(=O)O)c2ccccc21` [Example 25], the Absorption peak is listed as 767.5 nm and the “Absorbance × 10^4” value was determined as 2.265.

`CC1(C)C(/C=C/C2=C(Cl)C(=C/C=C3/N(CCCCCC(=O)Nc4ccccc4)c4ccccc4C3(C)C)/CCC2)=[N+](CCCCS(=O)(=O)O)c2ccccc21` [Example 26, 2-((E)-2-((E)-2-chloro-3-(2-((E)-3,3-dimethyl-1l-(6-oxo-6-(phenylamino)hexyl)indolin-2-ylidene)ethenyl)cyclohex-1-en-1-yl)ethenyl)-3,3-dimethyl-1-(4-sulfonylbutyl)-3H-indo-1-ium Formate]: the Absorption peak is recorded as 797.5 nm and the “Absorbance × 10^4” value turned out to be 2.44.

As to `CC1(C)C(/C=C/C2=C(Cl)C(=C/C=C3/N(CCCCCC(=O)Nc4ccccc4)c4ccccc4C3(C)C)/CCC2)=[N+](CCCCCC(=O)O)c2ccccc21` [Example 27A, 1-(5-carboxypentyl)-2-((E)-2-((E)-2-chloro-3-(2-((E)-3,3-dimethyl-1-(6-oxo-6-(phenylamino)hexyl)indolin-2-ylidene)ethenyl)cyclohex-1-en-1-yl)ethenyl)-3,3-dimethyl-3H-indol-1-ium 2,2,2-trifluoroacetate], the Absorption peak came out at 796.5 nm and the “Absorbance × 10^4” value is listed as 2.29.

Turning to `CC[N+]1=C(/C=C/C2=C(Cl)C(=C/C=C3/N(CCCCCC(=O)Oc4ccccc4)c4ccccc4C3(C)C)/C[N+](C)(C)C2)C(C)(C)c2ccccc21` [Example 28], the Absorption peak was found to be 766 nm and the “Absorbance × 10^4” value is recorded as 1.856.

In the case of `CC[N+]1=C(/C=C/C2=C(Cl)C(=C/C=C3/N(CCOCCCCCC(=O)Oc4ccccc4)c4ccccc4C3(C)C)/CCC2)C(C)(C)c2ccccc21` [Example 35, 2-((E)-2-((E)-2-chloro-3-(2-((E)-3,3-dimethyl-1-(2-((6-oxo-6-phenoxyhexyl)oxy)ethyl)indolin-2-ylidene)ethenyl)cyclohex-1-en-1-yl)ethenyl)-1-ethyl-3,3-dimethyl-3H-indol-1-ium 2,2,2-trifluoroacetate], the Absorption peak is given as 794.5 nm and the “Absorbance × 10^4” value is given as 2.21.

In the case of `CC[N+]1=C(/C=C/C2=C(Cl)C(=C/C=C3/N(CCOCCCC(=O)Oc4ccccc4)c4ccccc4C3(C)C)/CCC2)C(C)(C)c2ccccc21` [Example 36, 2-((E)-2-((E)-2-chloro-3-(2-((E)-3,3-dimethyl-1-(2-(4-oxo-4-phenoxybutoxy)ethyl)indolin-2-ylidene)ethenyl)cyclohex-1-en-1-yl)ethenyl)-1-ethyl-3,3-dimethyl-3H-indol-1-ium 2,2,2-trifluoroacetate], the Absorption peak came to 795.5 nm and the “Absorbance × 10^4” value was 3.368.

`CC[N+]1=C(/C=C/C2=C(Cl)C(=C/C=C3/N(CCOCCCCC(=O)Oc4ccccc4)c4ccccc4C3(C)C)/CCC2)C(C)(C)c2ccccc21` [Example 37A, 2-((E)-2-((E)-2-chloro-3-(2-((E)-3,3-dimethyl-1-(2-((5-oxo-5-phenoxypentyl)oxy)ethyl)indolin-2-ylidene)ethenyl)cyclohex-1-en-1-yl)ethenyl)-1-ethyl-3,3-dimethyl-3H-indol-1-ium 2,2,2-trifluoroacetate]: the Absorption peak is reported as 794.5 nm and the “Absorbance × 10^4” value is listed as 2.118.

As to `CN1C(=O)/C(=C\C2=C(Cl)C(=C/C=C3/N(CCCCC(=O)Oc4ccccc4)c4ccccc4C3(C)C)/C[N+](C)(C)C2)c2ccccc21` [Example 38], the Absorption peak is 584 nm and the “Absorbance × 10^4” value worked out at 0.364.

Turning to `CC[N+]1=C(/C=C/C2=C(Cl)C(=C/C=C3/N(CCCCCC(=O)Oc4ccccc4)c4ccccc4C3(C)C)/CCC2)C(C)(C)c2cc(S(C)(=O)=O)ccc21` [Example 40, 2-((E)-2-((E)-2-chloro-3-(2-((E)-3,3-dimethyl-1-(6-oxo-6-phenoxyhexyl)indolin-2-ylidene)ethenyl)cyclohex-1-en-1-yl)ethenyl)-1-ethyl-3,3-dimethyl-5-(methylsulfonyl)-3H-indol-1-ium Chloride], the “Absorbance × 10^4” value was determined as 0.93.

With `COc1ccc2c(c1)C(C)(C)C(/C=C/C1=C(Cl)C(=C/C=C3/N(CCCCCC(=O)Oc4ccccc4)c4ccc(OC)cc4C3(C)C)/CCC1)=[N+]2C` [Example 47, 2-((E)-2-((E)-2-chloro-3-(2-((E)-5-methoxy-3,3-dimethyl-1-(6-oxo-6-phenoxyhexyl)indolin-2-ylidene)ethenyl)cyclohex-1-en-1-yl)ethenyl)-5-methoxy-1,3,3-trimethyl-3H-indol-1-ium], the “Absorbance × 10^4” value was found to be 2.

Turning to `CC1(C)C(/C=C/C2=C(Cl)C(=C/C=C3/N(CCCCCC(=O)Oc4ccccc4)c4ccccc4C3(C)C)/CCC2)=[N+](CCO)c2ccccc21` [Example 48, 2-((E)-2-((E)-2-chloro-3-(2-((E)-3,3-dimethyl-1-(6-oxo-6-phenoxyhexyl)indolin-2-ylidene)ethenyl)cyclohex-1-en-1-yl)ethenyl)-1-(2-hydroxyethyl)-3,3-dimethyl-3H-indol-1-ium Formate], the “Absorbance × 10^4” value was 2.02.

In the case of `CC1(C)C(/C=C/C2=C(Cl)C(=C/C=C3/N(CCCCCC(=O)O)c4ccccc4C3(C)C)/CCC2)=[N+](CCO)c2ccccc21` [Example 49, 2-((E)-2-((E)-3-(2-((E)-1-(5-carboxypentyl)-3,3-dimethylindolin-2-ylidene)ethenyl)-2-chlorocyclohex-1-en-1-yl)ethenyl)-1-(2-hydroxyethyl)-3,3-dimethyl-3H-indol-1-ium Chloride], the “Absorbance × 10^4” value is on record as 2.3.

`CN(C)C1CC(/C=C/C2=[N+](C)c3ccccc3C2(C)C)=C(Cl)C(=C/C=C2/N(CCCCCC(=O)Oc3ccccc3)c3ccccc3C2(C)C)/C1` (stereo not drawn) [Example 50, 2-((E)-2-((E)-2-chloro-3-(2-((E)-3,3-dimethyl-1-(6-oxo-6-phenoxyhexyl)indolin-2-ylidene)ethenyl)-5-(dimethylamino)cyclohex-1-en-1-yl)ethenyl)-1,3,3-trimethyl-3H-indol-1-ium Formate]: the “Absorbance × 10^4” value stood at 1.97.

Regarding `C[N+]1=C(/C=C/C2=C(Cl)C(=C/C=C3/N(CCOCCOCCC(=O)Oc4ccccc4)c4ccccc4C3(C)C)/CCC2)C(C)(C)c2ccccc21` [Example 51, 2-((E)-2-((E)-2-chloro-3-(2-((E)-3,3-dimethyl-1-(2-(2-(3-oxo-3-phenoxypropoxy)ethoxy)ethyl)indolin-2-ylidene)ethenyl)cyclohex-1-en-1-yl)ethenyl)-1,3,3-trimethyl-3H-indol-1-ium Formate], the “Absorbance × 10^4” value was determined as 1.9.

Take `C[N+]1=C(/C=C/C2=C(Cl)C(=C/C=C3/N(CCOCCC(=O)Oc4ccccc4)c4ccccc4C3(C)C)/CCC2)C(C)(C)c2ccccc21` [Example 52, 2-((E)-2-((E)-2-chloro-3-(2-((E)-3,3-dimethyl-1-(2-(3-oxo-3-phenoxypropoxy)ethyl)indolin-2-ylidene)ethenyl)cyclohex-1-en-1-yl)ethenyl)-1,3,3-trimethyl-3H-indol-1-ium Chloride]: the “Absorbance × 10^4” value amounted to 2.14.

As to `C[n+]1cccc2c1N=C(/C=C/C1=C(Cl)C(=C/C=C3/N(CCCCCC(=O)Oc4ccccc4)c4ccccc4C3(C)C)/CCC1)C2(C)C` [Example 53, 2-((E)-2-((E)-2-chloro-3-(2-((E)-3,3-dimethyl-1-(6-oxo-6-phenoxyhexyl)indolin-2-ylidene)ethenyl)cyclohex-1-en-1-yl)ethenyl)-3,3,7-trimethyl-3H-pyrrolo[2,3-b]pyridin-7-ium 2,2,2-trifluoroacetate], the “Absorbance × 10^4” value was 0.6.

As for `CC[N+]1=C(/C=C/C2=C(Br)C(=C/C=C3/N(CCCCCC(=O)Oc4ccccc4)c4ccccc4C3(C)C)/CCC2)C(C)(C)c2ccccc21` [Example 54, 2-((E)-2-((E)-2-bromo-3-(2-((E)-3,3-dimethyl-1-(6-oxo-6-phenoxyhexyl)indolin-2-ylidene)ethenyl)cyclohex-1-en-1-yl)ethenyl)-1-ethyl-3,3-dimethyl-3H-indol-1-ium Formate], the “Absorbance × 10^4” value was determined as 2.57.
